Assay results reported in ChEMBL document CHEMBL5029183 (J Med Chem, 2021).
Active and inactive are the calls of the source.

Columns and labels:
[1] = test system: Mus musculus; test: Antinociceptive activity in Kunming mouse model assessed as increase in paw withdrawal latency at 10 micromol/kg, sc at 10 to 90 mins by radiant heat paw withdrawal assay; format: functional, organism-based; details: dose 10.0 µmol/kg, time 10-90 min
[2] = species on record: Mus musculus; test: Antinociceptive tolerance in Kunming mouse pretreated with saline for 2 hrs followed by compound addition by radiant heat paw withdrawal test; format: functional
[3] = test system: Mus musculus; test: Antinociceptive activity in Kunming mouse model assessed as increase in paw withdrawal latency at 20 nmol, icv pretreated for 10 mins with naloxone followed by compound addition and measured upto 10 mins by radiant heat paw withdrawal assay; format: functional, organism-based; details: time min <=10
[4] = test system: Mus musculus; test: Antinociceptive activity in Kunming mouse model assessed as increase in paw withdrawal latency at 20 nmol, icv pretreated for 4 hrs with beta-FNA followed by compound addition and measured upto 10 mins by radiant heat paw withdrawal assay; format: functional, organism-based; details: time min <=10
[5] = Toxicity in Kunming mouse model assessed as conditioned place preference time at 10 micromol/kg, sc; details: in vivo, dose 10 µmol/kg
[6] = test system: Mus musculus; test: Antinociceptive tolerance in Kunming mouse pretreated with compound for 3 hrs followed by challenge with second dose of compound at 20 nmol, icv and measured after 2 to 2.5 hrs by radiant heat paw withdrawal test; format: functional, organism-based; details: time lower 5.0 hrs, time upper […]
[7] = test system: Mus musculus; test: Antiallodynic activity in icv dosed Kunming mouse model of spared nerve injury-induced neuropathic pain assessed as increase in ipsilateral withdrawal threshold by von Frey test; format: functional, organism-based; details: dose 0.67-6.7 nmol
[8] = test system: Mus musculus; test: Antiallodynic activity in Kunming mouse model of CFA-induced inflammatory pain assessed as increase in ipsilateral withdrawal threshold at 0.67 to 6.7 nmol, icv measured at 10 to 50 mins by von Frey test; format: functional, organism-based; details: dose 0.67-6.7 nmol, time 10-50 min
[9] = test system: Mus musculus; test: Antinociceptive activity in Kunming mouse model assessed as increase in paw withdrawal latency at 0.67 to 20 nmol, icv measured after 10 mins by radiant heat paw withdrawal assay; format: functional, organism-based; details: dose 0.67-20 nmol
[10] = test system: Mus musculus; test: Antinociceptive activity in Kunming mouse model assessed as increase in paw withdrawal latency at 10 micromol/kg, sc pretreated with icv dosed naloxone for 5 mins followed by compound addition by radiant heat paw withdrawal assay; format: functional, organism-based; details: dose 10.0 µmol/kg
[11] = Metabolic stability in Kunming mouse serum assessed as half life measured upto 480 mins by RP-HPLC analysis; format: ADME, cell-free
[12] = target: Mu-type opioid receptor (Rattus norvegicus, UniProt P33535); test: Displacement of [3H]DAMGO from MOR in Wistar rat brain membranes measured after 1 hr by scintillation counting method; format: cell membranes, Membrane
Chain of Mu-type opioid receptor (Rattus norvegicus, UniProt P33535) (P33535 whole entry): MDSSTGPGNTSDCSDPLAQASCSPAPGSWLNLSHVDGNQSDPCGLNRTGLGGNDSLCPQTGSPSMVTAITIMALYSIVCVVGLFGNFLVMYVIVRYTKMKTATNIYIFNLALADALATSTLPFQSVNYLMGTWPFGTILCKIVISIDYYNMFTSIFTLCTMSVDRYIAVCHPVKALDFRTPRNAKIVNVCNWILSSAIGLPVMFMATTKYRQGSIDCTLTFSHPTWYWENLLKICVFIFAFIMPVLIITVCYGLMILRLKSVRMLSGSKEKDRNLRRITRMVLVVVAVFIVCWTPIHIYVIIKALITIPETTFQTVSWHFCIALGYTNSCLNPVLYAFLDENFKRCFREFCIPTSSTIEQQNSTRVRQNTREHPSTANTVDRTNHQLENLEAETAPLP

[13] = test system: Mus musculus; test: Antinociceptive activity in Kunming mouse model assessed as increase in paw withdrawal latency at 10 micromol/kg, sc by radiant heat paw withdrawal assay; format: functional, organism-based; details: dose 10.0 µmol/kg
[14] = Toxicity in Kunming mouse assessed as effect on motor coordination at 20 nmol, icv by rotarod test; details: in vivo, icv_or_intrathecal
[15] = target: Kappa-type opioid receptor (Homo sapiens) (UniProt P41145); test: Agonist activity at kappa-opioid receptor (unknown origin) expressed in HEK293 cells assessed as inhibition of forskolin-induced cAMP accumulation incubated for 15 mins by ELISA; format: functional, cell-based
Chain of Kappa-type opioid receptor (Homo sapiens) (P41145 whole entry): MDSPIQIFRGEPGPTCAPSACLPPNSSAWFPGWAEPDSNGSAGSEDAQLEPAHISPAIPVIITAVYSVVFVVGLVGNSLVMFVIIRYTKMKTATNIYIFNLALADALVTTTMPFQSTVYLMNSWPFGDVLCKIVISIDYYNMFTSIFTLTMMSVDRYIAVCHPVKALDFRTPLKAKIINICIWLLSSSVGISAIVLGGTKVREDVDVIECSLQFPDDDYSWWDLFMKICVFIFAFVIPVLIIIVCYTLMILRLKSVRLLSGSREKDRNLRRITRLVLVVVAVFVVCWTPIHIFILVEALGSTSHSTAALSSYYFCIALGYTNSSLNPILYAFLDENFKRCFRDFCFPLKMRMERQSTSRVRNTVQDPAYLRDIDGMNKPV

[16] = target: Delta-type opioid receptor (Homo sapiens) (UniProt P41143); test: Agonist activity at delta-opioid receptor (unknown origin) expressed in HEK293 cells assessed as inhibition of forskolin-induced cAMP accumulation incubated for 15 mins by ELISA; format: functional, cell-based
Chain of Delta-type opioid receptor (Homo sapiens) (P41143 whole entry): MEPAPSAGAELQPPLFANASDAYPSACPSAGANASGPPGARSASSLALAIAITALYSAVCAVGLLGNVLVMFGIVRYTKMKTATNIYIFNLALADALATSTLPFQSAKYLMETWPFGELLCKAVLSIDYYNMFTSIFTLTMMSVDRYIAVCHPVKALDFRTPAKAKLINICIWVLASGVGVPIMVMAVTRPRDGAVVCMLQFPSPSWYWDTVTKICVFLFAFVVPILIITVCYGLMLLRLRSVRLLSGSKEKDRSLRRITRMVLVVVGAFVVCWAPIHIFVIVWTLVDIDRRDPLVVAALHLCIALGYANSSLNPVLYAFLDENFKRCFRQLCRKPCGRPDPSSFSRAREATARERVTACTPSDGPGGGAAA

[17] = test system: Mus musculus; test: Antiallodynic activity in icv dosed Kunming mouse model of spared nerve injury-induced neuropathic pain assessed as increase in paw withdrawal threshold measured upto 50 mins by von Frey test; format: functional, organism-based; details: dose 0.67-6.7 nmol, time min <=50
[18] = test system: Mus musculus; test: Antiallodynic activity in Kunming mouse model of spared nerve injury-induced neuropathic pain assessed as increase in paw withdrawal threshold at 10 micromol/kg, sc by von Frey test; format: functional, organism-based; details: dose 10.0 µmol/kg
[19] = test system: Ileum; test: Inhibition of electric-field induced guinea pig ileum contraction; format: functional, tissue-based; details: Cavia porcellus
[20] = test system: Mus musculus; test: Antinociceptive activity in Kunming mouse model assessed as increase in paw withdrawal latency at 20 nmol, icv pretreated for 20 mins with NTI followed by compound addition and measured upto 10 mins by radiant heat paw withdrawal assay; format: functional, organism-based; details: time min <=10
[21] = target: Mu-type opioid receptor (Homo sapiens, UniProt P35372); test: Agonist activity at mu-opioid receptor (unknown origin) expressed in HEK293 cells assessed as inhibition of forskolin-induced cAMP accumulation incubated for 15 mins by ELISA; format: functional, cell-based
Chain of Mu-type opioid receptor (Homo sapiens, UniProt P35372) (P35372 whole entry): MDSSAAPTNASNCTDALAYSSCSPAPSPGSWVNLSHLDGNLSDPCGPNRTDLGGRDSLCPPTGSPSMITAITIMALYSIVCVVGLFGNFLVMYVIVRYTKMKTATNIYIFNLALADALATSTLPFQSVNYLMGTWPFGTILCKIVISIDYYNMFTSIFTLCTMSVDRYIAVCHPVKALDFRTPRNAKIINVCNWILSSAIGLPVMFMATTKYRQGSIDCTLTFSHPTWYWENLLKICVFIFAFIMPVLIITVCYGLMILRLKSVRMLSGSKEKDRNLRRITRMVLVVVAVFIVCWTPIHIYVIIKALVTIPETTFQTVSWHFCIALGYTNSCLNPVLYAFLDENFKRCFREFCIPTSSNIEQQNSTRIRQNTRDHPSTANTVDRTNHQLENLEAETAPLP

[22] = test system: Mus musculus; test: Antinociceptive activity in Kunming mouse model assessed as increase in paw withdrawal latency at 10 micromol/kg, sc pretreated with icv dosed naloxone methiodide for 5 mins followed by compound addition by radiant heat paw withdrawal assay; format: functional, organism-based; details: dose 10.0 µmol/kg
[23] = Toxicity in Kunming mouse model assessed as conditioned place preference time at 20 nmol, icv; details: in vivo, icv_or_intrathecal
[24] = test system: Vas deferens; test: Inhibition of electric-field induced mouse vas deferens contraction; format: functional, tissue-based
[25] = Toxicity in Kunming mouse assessed as effect on motor coordination at 10 micromol/kg, sc by rotarod test; format: organism-based; details: in vivo, dose 10 µmol/kg
[26] = test system: Mus musculus; test: Antinociceptive activity in Kunming mouse model assessed as increase in paw withdrawal latency at 0.67 to 20 nmol, icv by radiant heat paw withdrawal assay; format: functional, organism-based; details: dose 0.67-20 nmol, TDE = time-dependent effect
[27] = test system: Mus musculus; test: Antiallodynic activity in icv dosed Kunming mouse model of CFA-induced inflammatory pain assessed as increase in ipsilateral withdrawal threshold measured upto 50 mins by von Frey test; format: functional, organism-based; details: dose 0.67-6.7 nmol, time min <=50
[28] = species on record: Mus musculus; test: Antinociceptive tolerance in Kunming mouse pretreated with 3 times ED50 of compound for 2 hrs followed by challenge with second dose of compound by radiant heat paw withdrawal test; format: functional
[29] = test system: Mus musculus; test: Antinociceptive activity in Kunming mouse model assessed as increase in paw withdrawal latency at 0.67 to 20 nmol, icv measured upto 50 mins by radiant heat paw withdrawal assay; format: functional, organism-based; details: dose 0.67-20 nmol, time min <=50
[30] = test system: Mus musculus; test: Antiallodynic activity in Kunming mouse model of CFA-induced inflammatory pain assessed as increase in ipsilateral withdrawal threshold at 0.67 to 6.7 nmol, icv by von Frey test; format: functional, organism-based; details: dose 0.67-6.7 nmol, time 10-50 min, TDE = time-dependent effect
[31] = test system: Mus musculus; test: Antiallodynic activity in Kunming mouse model of spared nerve injury-induced neuropathic pain assessed as increase in paw withdrawal threshold at 0.67 to 6.7 nmol, icv after 50 mins by von Frey test; format: functional, organism-based; details: dose 0.67-6.7 nmol
[32] = test system: Mus musculus; test: Antinociceptive activity in Kunming mouse model assessed as increase in paw withdrawal latency at 10 micromol/kg, sc pretreated with sc dosed naloxone for 5 mins followed by compound addition by radiant heat paw withdrawal assay; format: functional, organism-based; details: dose 10.0 µmol/kg
[33] = test system: Mus musculus; test: Antiallodynic activity in Kunming mouse model of spared nerve injury-induced neuropathic pain assessed as increase in paw withdrawal threshold at 10 micromol/kg, sc measured at 10 to 50 mins by von Frey test; format: functional, organism-based; details: dose 10.0 µmol/kg, time 10-50 min
[34] = test system: Mus musculus; test: Antinociceptive activity in Kunming mouse model assessed as increase in paw withdrawal latency at 20 nmol, icv pretreated for 30 mins with nor-BNI followed by compound addition and measured upto 10 mins by radiant heat paw withdrawal assay; format: functional, organism-based; details: time min <=10
[35] = test system: Mus musculus; test: Antiallodynic activity in Kunming mouse model of spared nerve injury-induced neuropathic pain assessed as increase in paw withdrawal threshold at 0.67 to 6.7 nmol, icv at 10 mins by von Frey test; format: functional, organism-based; details: dose 0.67-6.7 nmol
[36] = test system: Mus musculus; test: Antinociceptive activity in Kunming mouse model assessed as increase in paw withdrawal latency at 10 micromol/kg, sc pretreated with sc dosed naloxone methiodide for 5 mins followed by compound addition by radiant heat paw withdrawal assay; format: functional, organism-based; details: dose 10.0 µmol/kg

Cc1cc(O)cc(C)c1C[C@H](N)C(=O)N[C@H]1CSSC[C@@H](C(=O)NCC(=O)N[C@H](CCCNC(=N)N)C(=O)N[C@H](CCCNC(=N)N)C(=O)O)NC(=O)[C@H](Cc2ccc(Cl)cc2)NC(=O)[C@H](Cc2c[nH]c3ccccc23)NC1=O
Non-Toxic: Activity [14] | Activity [25]
inactive: Activity [3] | Activity [4] | Activity [10] | Activity [15] | Activity [16] | Activity [22] | Activity [31] | Activity [32]
5.58 h: half-life [11]
2.7 nmol: ED50 [28]
active: Activity [1] | Activity [6] | Activity [7] Dose-Dependent Effect | Activity [8] | Activity [9] | Activity [13] | Activity [17] Dose-Dependent Effect | Activity [18] | Activity [20] | Activity [26] Tde | Activity [27] Dose-Dependent Effect | Activity [29] | Activity [30] Tde | Activity [33] | Activity [34] | Activity [35] | Activity [36]
47.5 nM: IC50 [24]
13.6 nM: EC50 [21]
2.2 nmol: ED50 [2]
5.78 nM: Ki [12]
9.21 nM: IC50 [19]
453 s: Time [5]
447 s: Time [23]

Cc1cc(O)cc(C)c1C[C@H](N)C(=O)N[C@H]1CSSC[C@@H](C(=O)NCC(=O)N[C@H](CCCNC(=N)N)C(=O)N[C@H](CCCNC(=N)N)C(=O)O)NC(=O)[C@H](Cc2ccc(Cl)cc2)NC(=O)[C@H](Cc2ccccc2)NC1=O
3.5 nmol: ED50 [28]
453 s: Time [5]
active: Activity [1] | Activity [6] | Activity [7] Dose-Dependent Effect | Activity [8] | Activity [9] | Activity [13] | Activity [17] Dose-Dependent Effect | Activity [18] | Activity [20] | Activity [26] Tde | Activity [27] Dose-Dependent Effect | Activity [29] | Activity [30] Tde | Activity [33] | Activity [35] | Activity [36]
Non-Toxic: Activity [14] | Activity [25]
450 s: Time [23]
5.33 h: half-life [11]
6.06 nM: Ki [12]
14.3 nM: EC50 [21]
inactive: Activity [3] | Activity [4] | Activity [10] | Activity [15] | Activity [16] | Activity [22] | Activity [31] | Activity [32] | Activity [34]
11.8 nM: IC50 [19]
49.3 nM: IC50 [24]
2.3 nmol: ED50 [2]
